Assay results from US11654292B2 (priority 2017, dated 2023).
Like-named read-outs stand apart in the source and are kept apart here.

Columns and labels:
MDA-MB-231 cells [1] = test: Stimulus intensity-response curve of pulsed magnetic field for cell lysis; assay type: cell-based; details: 500 nM digoxin, PMF stimulus intensity 80 mT (FIG. 1)
Procedure: FIG. 1 Stimulus intensity—response curve to determine the strength of the pulsed magnetic field necessary to produce cell lysis of MDA-MB-231 cells, in vitro (p<0.01).
A study was conducted where cells were pulsed with an increasing stimulus intensity to determine the strength of the pulsed magnetic field necessary to produce cell lysis of MDA-MB-231 cells in vitro. […] All tubes were exposed to a 0 to 80 mT PMF.

[2] = system: mouse breast cancer, 4T1, cells; test: In vivo TOL (digoxin + PMF) in immune competent mice with 4T1 tumors; parameters: species or system BALBc mice; details: 7 mg/kg digoxin s.c. x5 + PMF 30 min on day 0, 2 and 4 (TOL), FIG. 7
Procedure: FIG. 7A. […] Arrows indicate days of treatment; 7B. […] Thus, the life expectancy of mice treated with TOL exceeds that of controls by approximately 1 week.
This treatment was administered on day 0 (first day of treatment), on day 2 and on day 4. Mice were monitored for tumor growth and were sacrificed when they met the NIH criteria for humane endpoint euthanasia.

[3] = system: MDA-MB-231 breast cancer cells; test: Cell lysis, digoxin with 80 mT pulsed magnetic field in solenoid; assay type: cell-based; details: 100 nM digoxin + 80 mT magnetic pulses at 25 Hz, within 10 min
Description: (§1) Tubes were placed in an 8″1X 2.5″dia. solenoid with 697 turns (500 ft.) of 12 ga copper wire. A 5VDC current from an AE Techron 7224 DC-extended AC amplifier pulsed at 25 Hz, with a 10 msec ramp and fall, controlled by a Techtronics AFG 3021B waveform generator produced 80 mT magnetic pulses in the solenoid.

[4] = system: MCF-10a normal breast epithelial cells; test: as above; assay type: cell-based; details: 100 nM digoxin + 80 mT magnetic pulses at 25 Hz
Description: as §1

MDA-MB-231 xenografts = test: In vivo TOL (digoxin + PMF) in mice with MDA-MB-231 xenografts; parameters: species or system J/Nu mice
Procedure: This protocol establishes steady-state pharmacokinetics in even poorly vascularized tissues. The mice were exposed to the pulsed magnetic field, using the same parameters as with the cultured cells, for 15 min starting 30 min after the last injection. This treatment was repeated two and four days after the first treatment. Mice were sacrificed and fixed with 4% paraformaldehyde 24 hrs after the third treatment. Tissues from these animals were sectioned and evaluated by a pathologist that was blind to the treatment.

MDA-MB-231 cells [5] = test: Sodium dependence of TOL in Ringer's solution with or without sodium; assay type: cell-based; details: Homo sapiens, MDA-MB-231, 10 min
Procedure: FIG. 2 TOL is dependent on the presence of sodium.
A study was conducted where the culture media containing MDA-MB-231 cells was replaced with Ringer's solution with or without sodium and then stimulated with pulsed magnetic fields of 80 mT for 10 minutes. Cells were transferred to microfuge tubes containing either Ringers +Na^+ or Ringers−Na^+.

MDA-MB-231 cells [6] = test: Trypan Blue estimate of cell lysis, ouabain with or without pulsed z-gradient magnetic field (MRI); assay type: cell-based
Procedure: Two tubes of MDA-MB-231 cells were prepared. The media in one tube was replaced by media containing 100 nM ouabain to block the sodium pumps. Both tubes were placed in the MRI and offset from center by 317 mm in the z-gradient field and exposed to the pulsed magnetic field. The samples were then repositioned and imaged.
After imaging, the cells in each vial were stained with Trypan Blue to estimate the number of cells that had been lysed by each treatment: (A) magnetic stimulation alone or (B) ouabain and magnetic stimulation. Virtually all of the cells that had only been exposed to pulsed magnet field stimulation were alive (expelled the Trypan Blue stain) and 10-15% of the cells that had been simultaneously treated with ouabain and pulse magnetic field stimulation were dead (appeared shrunken and retained the stain).
In this example, cells were exposed to ouabain for over 60 min during the preparation for the magnetic field stimulation. Because lysis may occur in a small percentage of cells when exposed to ouabain alone, a study was conducted where a vial of cells was exposed to ouabain without pulsed field stimulation for greater than 90 min.
The duration, amplitude and frequency of the pulsed z-gradient field was varied. All targeted osmotic lysis (TOL) vials (ouabain and pulsed magnetic field stimulation) were exposed to 100 nM ouabain for 10 min. Ouabain-treated and normal MDA-MB 231 control vials were exposed to the same pulsed magnetic field and then stained with Trypan Blue to estimate the amount of cell lysis in each tube. Two trials were conducted using the maximum field strength available (289.1689 Amp). The pulsed stimulus for the first of these trials was delivered with a rise time of 10 msec, a 2.5 msec return to baseline and an inter-stimulus interval of 17.5 msec; the stimulus was pulsed with a rise time of 10 msec, a 2.5 msec return to baseline and an inter-stimulus interval of 7.5 msec for the second trial. […]

SMILES	cell lysis (MDA-MB-231 cells [1]) [%]	time to reach humane endpoint euthanasia criteria vs control groups [2]	cells lysed [3] [%]	cell lysis when stimulated [4]	tumor lysis (MDA-MB-231 xenografts; 5 mg/kg digoxin s.c. five times at 1 hr intervals + PMF 15 min, three treatments (TOL))	median tumor necrosis score (grade 1-5) vs controls (MDA-MB-231 xenografts; 5 mg/kg digoxin s.c. x5 + PMF (TOL), FIG. 4, p<0.05)	tumor histology, drug-only control vs untreated controls (MDA-MB-231 xenografts; 5 mg/kg digoxin s.c. x5, no magnetic stimulation)	tumor growth rate vs controls (MDA-MB-231 xenografts; TOL (Dig-PMF), FIG. 6)	cytotoxicity at 0.5 µM (MDA-MB-231 cells [5]; read-out: non-viable cells, 500 nM digoxin + 80 mT PMF 10 min (Dig-PMF), Ringers +Na+ (FIG. 2)) [%]	cytotoxicity at 0.5 µM (MDA-MB-231 cells [5]; read-out: non-viable cells, 500 nM digoxin + 80 mT PMF 10 min (Dig-PMF), Ringers without sodium (FIG. 2)) [%]	cell lysis, kill rate (MDA-MB-231 cells [6]; 100 nM ouabain 10 min + pulsed z-gradient field, amplitude 289.1689, inter-pulse interval 7.5 msec (50 Hz))	cells dead (retained Trypan Blue stain) (MDA-MB-231 cells [6]; 100 nM ouabain (over 60 min) + pulsed z-gradient magnetic field 5 min, amplitude 187.5973, inter-stimulus interval 17.5 msec)	cells dead (MDA-MB-231 cells [6]; ouabain alone, no pulsed field stimulation, greater than 90 min)
C[C@H]1O[C@@H](O[C@H]2[C@@H](O)C[C@H](O[C@H]3[C@@H](O)C[C@H](O[C@H]4CC[C@@]5(C)[C@H](CC[C@@H]6[C@@H]5C[C@@H](O)[C@]5(C)[C@@H](C7=CC(=O)OC7)CC[C@]65O)C4)O[C@@H]3C)O[C@@H]2C)C[C@H](O)[C@@H]1O [digoxin]	~100	significantly longer	97.5	Neither digoxin-treated nor untreated MCF-10a cells lysed	80-100%	significantly greater	did not differ from untreated controls	significantly slower	~70	< 20			
C[C@@H]1O[C@@H](O[C@H]2C[C@@H](O)[C@]3(CO)[C@H]4[C@H](O)C[C@]5(C)[C@@H](C6=CC(=O)OC6)CC[C@]5(O)[C@@H]4CC[C@]3(O)C2)[C@H](O)[C@H](O)[C@H]1O [ouabain]											80-90%	10-15%	Less than 1%
